From EP4501942A1, “PEPTIDOMIMETICS WITH ANTIVIRAL ACTIVITY” (priority 2023, dated 2025)
Where two headings read alike, the source gives them in different places.

How the values were obtained:
[1] = Cytotoxicity MTT assay in uninfected A549-ACE2 cells; format: cell-based; conditions: human
Experimental: To evaluate the cytotoxicity profile of the compounds MTT assays were performed in A549-ACE2 cells. Uninfected cells were incubated with a range of compound concentrations (from 100 to 1 µM) for forty-eight hours, time at which the MTT substrate [3-(4,5-dimethylthiazol-2-yl)-2,5-diphenyltetrazolium bromide] was added and the formation of formazan precipitates was evaluated two hours later, using a colorimetric readout. Vehicle-treated (DMSO) cells were used as reference (100 %).

[2] = target: SARS-CoV-2 M^pro protein (Severe acute respiratory syndrome coronavirus 2, UniProt P0DTD1); experiment: biochemical; conditions: for IC50: three separate experiments in duplicate, read-out: IC50, mean±SD; for inhibition at 10 µM: read-out: % of inhibition at 10 µM
[3] = test system: SARS-CoV-2; experiment: microbe, parasite or virus in culture; format: cell-based
[4] = in vitro
[5] = in vitro; conditions: human
[6] = test system: GFP-expressing recombinant vesicular stomatitis virus (VSV-GFP); experiment: microbe, parasite or virus in culture; format: cell-based; conditions: A549-ACE2, 16 h
[7] = Severe acute respiratory syndrome coronavirus 2, SARS-CoV-2, A549-ACE2 cells, MOI 0.005, 48 h, read-out: EC50
[8] = Severe acute respiratory syndrome coronavirus 2, SARS-CoV-2, A549-ACE2 cells, MOI 0.005, 48 h, read-out: EC90
[9] = isolated SARS-CoV-2 M^pro, compound at 10 µM
[10] = Severe acute respiratory syndrome coronavirus 2, A549-ACE2, 48 h

| SMILES | CC50 at 48 h [1] [µM] | IC50 ([2]; isolated SARS-CoV-2 M^pro) [µM] | EC50 [3, 7] [µM] | EC90 [3, 8] [µM] | other results |
| --- | --- | --- | --- | --- | --- |
| CC(C)C(NC(=O)C1CC1)C(=O)N1CC(C)C1(Cc1ccccc1)C(=O)NC(C#N)CC1CCNC1=O [Example 8, Cyclopropylcarbonyl-L-Val-(αS,β'R)-Azf-NH[(1S)-1-cyano-2-[(3'S)-2'-oxopyrrolidin-3'-yl]ethane] | > 100 | 0.39 ± 0.05 | 8 | 31 |  |
| CC(C)[C@H](NC(=O)OCc1ccccc1)C(=O)N1C[C@@H](C)[C@@]1(Cc1ccc(O)cc1)C(=O)N[C@H](C#N)C[C@@H]1CCNC1=O [Example 9] |  | 6.43 ± 0.53 |  |  |  |
| CC(C)C[C@]1(C(=O)N[C@H](C#N)C[C@@H]2CCNC2=O)[C@@H](C)CN1C(=O)[C@@H](NC(=O)C(F)(F)F)C(C)C [Example 4] |  |  |  |  | inhibition at 10 µM [2, 9]: 0% |
| C[C@@H]1CN(C(=O)[C@@H](NC(=O)OCc2ccccc2)C(C)(C)C)[C@]1(CCCCNC(=O)OC(C)(C)C)C(=O)N[C@H](C#N)C[C@@H]1CCNC1=O [Example 22] |  |  |  |  | inhibition at 10 µM [2]: 16% |
| C[C@@H]1CN(C(=O)[C@@H](NC(=O)OCC(F)F)C(C)(C)C)[C@]1(Cc1ccccc1)C(=O)N[C@H](C=O)C[C@@H]1CCNC1=O [Example 31, 2,2-Difluoroethyloxycarbonyl-L-Tbg-(αS,β'R)-Azf-L-Ala(3S-2-oxopyrrolidin-3-yl)-H] | > 100 | 0.024 ± 0.002 | 3 | 11 |  |
| C[C@@H]1CN(C(=O)[C@@H](NC(=O)C(F)(F)F)C(C)(C)C)[C@]1(CC1CCCCC1)C(=O)N[C@H](C#N)C[C@@H]1CCNC1=O [Example 38] | > 100 | 2.36 ± 0.75 | 25 | > 25 |  |
| CC(C)(C)[C@@H]1NC(=O)O[C@@H]2CCC[C@H]2OC/C=C/C(F)(F)c2nc3ccccc3nc2O[C@@H]2C[C@@H](C(=O)N[C@]3(C(=O)NS(=O)(=O)C4(C)CC4)C[C@H]3C(F)F)N(C2)C1=O [Glecaprevir, reference compound] |  |  |  |  | CC50 [4]: > 50 µM |
| CC(C)[C@H](NC(=O)OCc1ccccc1)C(=O)N1C[C@@H](C)[C@@]1(Cc1ccc(OC(C)(C)C)cc1)C(=O)N[C@H](C#N)C[C@@H]1CCNC1=O [Example 10] |  |  |  |  | inhibition at 10 µM [2]: 9% |
| CC(C)[C@H](NC(=O)OCC(F)F)C(=O)N1C[C@@H](C)[C@@]1(Cc1ccccc1)C(=O)N[C@H](C#N)C[C@@H]1CCNC1=O [Example 39] | > 50 |  | 0.4 | 2 |  |
| Cc1ccc(OCC(=O)N[C@H](C(=O)N2C[C@@H](C)[C@@]2(Cc2ccccc2)C(=O)N[C@H](C#N)C[C@@H]2CCNC2=O)C(C)(C)C)cc1 [Example 17] | 100 | 1.03 | 3 | 18 |  |
| CC(C)[C@H](NC(=O)OCc1ccccc1)C(=O)N1C[C@@H](C)[C@@]1(Cc1c[nH]c2ccccc12)C(=O)N[C@H](C#N)C[C@@H]1CCNC1=O [Example 11] | > 100 | 4.74 ± 0.81 | 31 | 48 |  |
| CC(C)(C)[C@H](NC(=O)C(F)(F)F)C(=O)N1C[C@H]2[C@@H]([C@H]1C(=O)N[C@H](C#N)C[C@@H]1CCNC1=O)C2(C)C [PF-07321332, nirmatrelvir, reference compound] | 100 |  |  |  | EC50 [3, 10]: < 0.2 µM; EC90 [3, 10]: < 0.2 µM |
| C[C@@H]1CN(C(=O)[C@@H](NC(=O)OC(C)(C)C)C(C)(C)C)[C@]1(CC1CCCCC1)C(=O)N[C@H](C#N)C[C@@H]1CCNC1=O [Example 35] | > 100 |  | 3 | 20 |  |
| C[C@@H]1CN(C(=O)[C@@H](NC(=O)OCc2ccccc2)C(C)(C)C)[C@]1(Cc1ccccc1)C(=O)N[C@H](C#N)Cc1c[nH]cn1 [Example 24] | > 100 |  | 18 | 40 | inhibition at 10 µM [2]: 10% |
| CC(C)C[C@]1(C(=O)N[C@H](C#N)C[C@@H]2CCNC2=O)[C@@H](C)CN1C(=O)[C@@H](NC(=O)OCc1ccccc1)C(C)C [Example 2] |  |  |  |  | inhibition at 10 µM [2, 9]: 0% |
| C[C@@H]1CN(C(=O)[C@@H](NC(=O)C(F)(F)F)C(C)(C)C)[C@]1(Cc1ccccc1)C(=O)N[C@H](C#N)C[C@@H]1CCNC1=O [Example 15] | > 100 |  | 2 | 13 |  |
| CC(C)C[C@@]1(C(=O)N[C@H](C=O)C[C@@H]2CCNC2=O)[C@H](C)CN1C(=O)[C@@H](NC(=O)OCc1ccccc1)C(C)C [Example 27, Z-L-Val-(αS,β'R)-Azl-L-Ala(3S-2-oxopyrrolidin-3-yl)-H] | > 100 | 0.077 ± 0.02 | 1 | 5 | CC50 [5]: > 50 µM; EC50 [6]: > 50 µM; EC90 [6]: > 50 µM |
| COC(=O)N[C@H](C(=O)N1C[C@@H](C)[C@@]1(Cc1ccccc1)C(=O)N[C@H](C#N)C[C@@H]1CCNC1=O)C(C)(C)C [Example 16] | > 100 | 0.94 ± 0.17 | 3 | 20 |  |
